Structures can show the parent of a compound that is named as a salt.
biological target: FGFR2 (Homo sapiens, UniProt P21802); assay: FGFR wild type enzyme assay (HTRF KinEASE-TK), FGFR2; conditions: Enz FGFR2 (nM)
Sequence (P21802 399-821 limits assumed): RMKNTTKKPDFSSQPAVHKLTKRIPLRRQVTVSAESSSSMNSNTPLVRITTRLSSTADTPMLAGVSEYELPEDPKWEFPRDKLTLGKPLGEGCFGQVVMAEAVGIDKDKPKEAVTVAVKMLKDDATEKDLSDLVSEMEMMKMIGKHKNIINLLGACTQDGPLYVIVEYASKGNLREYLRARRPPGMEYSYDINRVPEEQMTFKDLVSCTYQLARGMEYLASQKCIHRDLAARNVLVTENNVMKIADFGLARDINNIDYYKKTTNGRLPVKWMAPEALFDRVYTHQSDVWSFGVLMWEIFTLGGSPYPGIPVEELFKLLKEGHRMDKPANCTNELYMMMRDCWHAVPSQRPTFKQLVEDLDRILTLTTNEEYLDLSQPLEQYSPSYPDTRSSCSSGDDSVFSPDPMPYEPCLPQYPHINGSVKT

Compared with `CSc1cc(-c2cnn([C@H]3CCCNC3)c2)cn2ncc(C#N)c12` [Example 50, 4-methylsulfanyl-6-[1-[(3S)-3-piperidyl]pyrazol-4-yl] pyrazolo[1,5-a]pyridine-3-carbonitrile], `CCSc1cc(-c2cnn([C@H]3CCCNC3)c2)cn2ncc(C#N)c12` [Example 51, 4-ethylsulfanyl-6-[1-[(3S)-3-piperidyl]pyrazol-4-yl]pyrazolo[1,5-a]pyridine-3-carbonitrile] is 2-fold lower in IC50: 2 nM for the first, 1 nM for the second.

Going from `CC(C)Sc1cc(-c2cnn([C@H]3CCCNC3)c2)cn2ncc(C#N)c12` [Example 52, 4-isopropylsulfanyl-6-[1-[(3S)-3-piperidyl]pyrazol-4-yl]pyrazolo[1,5-a]pyridine-3-carbonitrile] to `COCCSc1cc(-c2cnn([C@H]3CCCNC3)c2)cn2ncc(C#N)c12` [Example 53, 4-(2-methoxyethylsulfanyl)-6-[1-[(3S)-3-piperidyl]pyrazol-4-yl]pyrazolo[1,5-a]pyridine-3-carbonitrile], the IC50 rises from 2 nM to 3 nM (1.5-fold).

Going from `N#Cc1cnn2cc(-c3cnn([C@H]4CCCNC4)c3)cc(SC3CCC3)c12` [Example 54, 4-cyclobutylsulfanyl-6-[1-[(3S)-3-piperidyl]pyrazol-4-yl]pyrazolo[1,5-a]pyridine-3-carbonitrile] to `N#Cc1cnn2cc(-c3cnn([C@H]4CCCNC4)c3)cc(SC3CCOC3)c12` (stereo partly drawn) [Example 58, 6-[1-[(3S)-3-piperidyl]pyrazol-4-yl]-4-tetrahydrofuran-3-ylsulfanyl-pyrazolo[1,5-a]pyridine-3-carbonitrile], the IC50 rises from 1 nM to 4 nM (4-fold).

`N#Cc1cnn2cc(-c3cnn([C@H]4CCCNC4)c3)cc(Sc3cnccn3)c12` [Example 55, 6-[1-[(3S)-3-piperidyl]pyrazol-4-yl]-4-pyrazin-2-ylsulfanyl-pyrazolo[1,5-a]pyridine-3-carbonitrile] and `Cc1ccnc(Sc2cc(-c3cnn([C@H]4CCCNC4)c3)cn3ncc(C#N)c23)c1` [Example 59, 4-[(4-methyl-2-pyridyl)sulfanyl]-6-[1-[(3S)-3-piperidyl]pyrazol-4-yl]pyrazolo[1,5-a]pyridine-3-carbonitrile] are within 1.5-fold of each other in IC50: 13 nM for the first, 11 nM for the second.

First: Cc1c(-c2cc(Sc3ccccn3)c3c(C#N)cnn3c2)cnn1[C@H]1CCCNC1 [Example 56, 6-[5-methyl-1-[(3S)-3-piperidyl]pyrazol-4-yl]-4-(2-pyridylsulfanyl)pyrazolo[1,5-a]pyridine-3-carbonitrile]
Second: Cn1ncc2cc(Sc3cc(-c4cnn([C@H]5CCCNC5)c4)cn4ncc(C#N)c34)ccc21 [Example 57, 4-(1-methylindazol-5-yl)sulfanyl-6-[1-[(3S)-3-piperidyl]pyrazol-4-yl]pyrazolo[1,5-a]pyridine-3-carbonitrile]
The IC50 of the first is 2.2-fold lower: 6 nM for the first, 13 nM for the second.

`N#Cc1cnn2cc(-c3cnn(C4CCNCC4)c3)cc(Sc3ncccn3)c12` [Example 60, 6-(1-(piperidin-4-yl)-1H-pyrazol-4-yl)-4-(pyrimidin-2-ylthio)pyrazolo[1,5-a]pyridine-3-carbonitrile, HCl] and `Cn1nccc1Sc1cc(-c2cnn(C3CCNCC3)c2)cn2ncc(C#N)c12` [Example 61, 4-((1-methyl-1H-pyrazol-5-yl)thio)-6-(1-(piperidin-4-yl)-1H-pyrazol-4-yl)pyrazolo[1,5-a]pyridine-3-carbonitrile, HCl] are within 1.5-fold of each other in IC50: 7 nM for the first, 9 nM for the second.

Work on `N#Cc1ccccc1Sc1cc(-c2cnn(C3CCNCC3)c2)cn2ncc(C#N)c12` [Example 62, 4-((2-cyanophenyl)thio)-6-(1-(piperidin-4-yl)-1H-pyrazol-4-yl)pyrazolo[1,5-a]pyridine-3-carbonitrile] yielded an IC50 of 0.3 nM.

same assay, conditions: Enz FGFR2 (nM), FGFR2 wild type enzyme assay

`Cc1c(-c2cc(Sc3ccc(F)cc3C#N)c3c(C#N)cnn3c2)cnn1C1CCC(C)(C)NC1` (stereo in doubt) [Example 529, 4-(2-cyano-4-fluoro-phenyl)sulfanyl-6-[1-[(3R)-6,6-dimethyl-3-piperidyl]-5-methyl-pyrazol-4-yl]pyrazolo[1,5-a]pyridine-3-carbonitrile] showed an IC50 of 1 nM.

— patent publication US20240270741A1 (Cogent Biosciences, Inc., priority 2023, published 2024)
